# Laboratory results as given in publication PMC10108821, “Three tyrosine kinase inhibitors cause cardiotoxicity by inducing endoplasmic reticulum stress and inflammation in cardiomyocytes” (BMC Medicine, 2023).
# Legend:
# Cor.4U hiPSC-CMs [1] = assay: ATP level (CellTiter-Glo) in hiPSC-CMs; format: cell-based, human
# Method: ATP content was measured using the CellTiter-Glo Luminescent Cell Viability Assay (Promega) following the manufacturer’s protocol. After adding CellTiter-Glo reagents and incubation, luminescence was quantified using a Synergy H1 plate reader (BioTek Instruments). ATP standards were prepared from 0.01 to 5 μM. For each drug, we fitted a four-parameter log-logistic model to calculate ED50 at day 5 (Fig S1). To rank the cellular toxicity of the eight TKIs (Fig 1T), we calculated (EC50-Cmax)/(EC50+Cmax) and arranged from the smallest to the biggest for increasing cellular toxicity.
# HELP hiPSC-CMs = assay: CardioExcyte 96 microelectrode array: base impedance and extracellular field potential; format: cell-based, human; settings: fixed doses: 10 µM, crizotinib and ponatinib 3.16 µM; up to 24 h
# Method: HELP hiPSC-CMs were seeded evenly into the 96-well microelectrode array, NSP-96 0.6mm sensor plate (Nanion technologies), at 50,000 cells per well. Measurements were started after 3-5 days of culture of these cells and until the impedance and the extracellular field potential are stable. Measurements were taken a few times before drug addition, and every 30~60 minutes after the drugs were added at 2x concentration. Values were averaged from 3 wells per group. Beat rate, amplitude of impedance, base impedance and FPDc were calculated by the Cardio Excyte Control 96 software package (Nanion Technologies).
# NRCMs [2] = assay: Seahorse assay: oxygen consumption and extracellular acidification; format: cell-based, rat; settings: 24 h; fixed doses: 10 µM, crizotinib and ponatinib 3.16 µM
# Method: (§1) Rats were euthanized by decapitation and thoracic cavity was opened with scissors and hearts were popped out of the opening gently with fingers. Hearts were clipped and put in HBSS immediately; 20–40 hearts were collected into one sterile vial containing a magnetic stir bar and 1 mL digestive media made of 0.1% trypsin (Macklin) and 0.05% collagenase (Gibco) in HBSS. Hearts were minced until they were uniform in size. Digestive media was added to 10 mL for 40 hearts and stirred gently for 6 min. Supernatant was discarded and the digestion was repeated once; 10 mL digestive media was added and stirred gently for 10 min. The supernatant with cells were collected and the digestion and collection were repeated 4 times. Cells were centrifuged at 1200 rpm for 5 min, resuspended in media (Dulbecco’s modified Eagleʼs medium (Gibco)) with 10% fetal bovine serum (FBS; VISTECH), 1% penicillin–streptomycin, and 1% 0.1 M 5-bromo-2-deoxyuridine solution (Shanghai Yuanye) and filtered through a 40-μm cell strainer. Cells were seeded on a 100-mm plastic dish and cultured in a 5% CO2 incubator at 37 °C for 2 h to allow non-myocytes to adhere to the plate. The dish was swirled and media gently pipetted up and down to detach lightly attached cardiomyocytes. The collected myocytes were seeded in the same media described before; 48 h after plating, medium was exchanged to fresh DMEM (Gibco) with or without 2% FBS. All drug treatments were performed after this media change.
# NRCMs were seeded evenly into the Seahorse XF96 cell culture plates (Agilent) and cultured in DMEM high glucose with 2% FBS. About 2 hours before the test, cells were moved to a non-CO2 incubator at 37 ° C and incubated for 1 hour. 1 hour prior to the test, culture media was replaced with the Seahorse Basal DMEM at 37°C (with appropriate concentration of glucose, 4mM L-glutamine, 1 mM sodium pyruvate and 1% penicillin-streptomycin solution) and incubated in a non-CO2 incubator at 37°C for 1 hour. Drugs were prepared at 8x to 10x concentrations with the corresponding seahorse media as in each well and added into ports of Seahorse XF96 cartridge plates which have been hydrated overnight. XFe96 Extracellular Flux Analyzer (Agilent) was used to measure oxygen consumption rate and extracellular acidification rate of cells with different drug treatments.
# ER stress genes in NRCMs = assay: qRT-PCR of ER stress genes in NRCMs; format: cell-based, rat
# Method: as §1, with “The collected myocytes were seeded in the same media described before; 48 h after plating, medium was exchanged to fresh DMEM (Gibco) with or without 2% FBS.” left out
# RNA was isolated based on a standard protocol using TRIzol reagent (Vazyme). TRIzol (1ml per 1 well of a 6-well plate) was used to lyse cells and chloroform was added for RNA separation. Samples were shaked vigorously by hand for 15 seconds and incubated at room temperature for 2-3 minutes. RNA was present in the aqueous phase after centrifuge at 12000 x g for 15 minutes. Isopropyl alcohol was mixed to precipitate RNA from the aqueous phase. […] 1 μg total RNA was used for cDNA synthesis using a reverse transcription kit (Bioman). We then measured expression of genes of interest with SYBRR Green qPCR Mix (Bioman) using Applied Biosystems 7500 Quantitative PCR Instrument. Gene expression was normalized to the 18S ribosomal RNA expression and primers were listed in Primers Table.
# [3] = tested on: Phospho-eIF2α, XBP1s, ATF6 (cleaved); assay: Western blot of ER stress effectors in NRCMs; format: cell-based, rat
# Method: Cells were homogenized in the RIPA lysis buffer (Applygen) containing protease and phosphatase inhibitor cocktails (Bimake). The extract was spun at 12,000xg for 20min at 4°C. Total protein was measured by BCA (Thermofisher) and resolved by sodium dodecyl sulfate–polyacrylamide gel electrophoresis (SDS-PAGE). Proteins were blotted to polyvinylidene difluoride membranes (Amersham). Blots were blocked with non-fat milk (BBI Life Sciences) and incubated with antibodies against ATF6 (proteintech), phospho-eIF2α (ABclonol), XBP1 (ABclonol) and GAPDH (proteintech). Goat anti-rabbit IgG, goat anti-mouse IgG were incubated with the blots for 1 hour at room temperature. After 3 washes with 1xTBST (50 mM Tris-Cl, 150 mM NaCl, 0.1% Tween 20, pH 7.5), the blots were developed with the ECL Plus Kit (Absin). Relative protein expression was quantified by optical density and normalized to GAPDH.
# NRCMs [4] = assay: ROS by H2DCFDA staining and flow cytometry; settings: 3 h; 10 µM afatinib, 10 µM sorafenib, 5.62 µM ponatinib
# Method: (§2) For ROS assessment, cells were washed with PBS once and stained with 10μM H2DCFHDA (MCE) in phenol red-free DMEM (Procell) in a humid incubator with 5% CO2 at 37°C for 30 minutes. Cells were washed with PBS twice and dissociated to single cells before flow cytometry analysis at the FITC channel. For lipid peroxidation measurement, cells were washed with PBS once and stained with 2μM C11-bodipy^581/591 (Cayman) in phenol red-free DMEM (Procell) in a humid incubator with 5% CO2 at 37°C for 30 minutes. Cells were washed with PBS twice and dissociated to single cells before flow cytometry analysis at both the FITC and the PE channels. Fluorescence of the oxidized C11-bodipy were acquired through the FITC channel (Ex/Em=488/520nm) and that of the non-oxidized C11-bodipy through the PE channel (Ex/Em=555/624nm).
# NRCMs [5] = assay: Lipid peroxidation by C11-bodipy 581/591 and flow cytometry
# Method: as §2
# NRCMs [6] = assay: Calcium staining with Calbryte 520 AM; format: cell-based, rat; settings: 0.5 and 1 h; 10 µM afatinib, 10 µM sorafenib, 5.62 µM ponatinib
# [7] = in vivo; cited from earlier work
# patients = settings: ref Table S1, 2, 4, 26–36; cited from earlier work
# Cor.4U hiPSC-CMs [8] = assay: 3'DGE-UMI RNAseq transcriptome of hiPSC-CMs; settings: high PC1 loadings; ponatinib at high dose
# [9] = Sprague-Dawley, rat, 24 h, 10 µM
compound,measurement,setting,value
CN(C)C/C=C/C(=O)Nc1cc2c(Nc3ccc(F)c(Cl)c3)ncnc2cc1O[C@H]1CCOC1 [afatinib],EC50 on cells relative to Cmax in vivo,Cor.4U hiPSC-CMs [1],~ 60 folds
same,effect on ATP levels,"Cor.4U hiPSC-CMs [1]; 0.32 to 10 µM, day 1 to day 5",dose-dependent and time-dependent reduction in ATP levels
same,dose-dependent toxicity (ATP fold changes),"Cor.4U hiPSC-CMs [1]; day 1, different doses, RNAseq conditions",dose-dependent toxicity
same,time-dependent toxicity (ATP fold changes),"Cor.4U hiPSC-CMs [1]; fixed dose over 5 days, RNAseq conditions",increasing toxicity with treatment duration
same,"effect on beat rate, contraction, base impedance and corrected field potential duration",HELP hiPSC-CMs,reduced beat rate and corrected field potential duration
same,basal oxygen consumption rate (OCR),NRCMs [2],trend of inhibiting basal oxygen consumption rate (OCR)
same,"temporal activation of ER stress genes, 72 versus 24 h","ER stress genes in NRCMs; afatinib 5.62 µM, sorafenib 3.16 μM, ponatinib 1.78 μM","higher expression of Atf4, but a lower expression of Xbp1s and Atf6 at 72- than 24-h treatment"
same,relative activation of the three UPR branches,"ER stress genes in NRCMs; high-dose treatment, 24 h",activated the ATF4 axis more robustly than the XBP1s and the ATF6 axes
same,duration of activated eIF2α phosphorylation,[3],12 h
same,increase in percent of ROS-high cells,NRCMs [4],14.1%
same,change in percent of cells with high lipid peroxidation,NRCMs [5],increased slightly
same,"level of lipid peroxidation, TKI alone",NRCMs [5]; [9],92.5%
same,"level of lipid peroxidation, TKI with trolox",NRCMs [5]; [9],83%
same,cytosolic calcium concentration,NRCMs [6],did not cause any significant changes in calcium concentration
same,Cmax,[7],50 nM
same,level of cardiotoxicity based on literature reports,patients,low cardiotoxicity
same,"expression of genes associated with ER stress (ATF4, NUPR1, DDIT3, TRIB3, CHAC1, SESN2, HERPUD1)",Cor.4U hiPSC-CMs [8],upregulated
same,"expression of genes related to cardiomyopathy and sarcomeric structure (MYH7, SYNPO2L, LDB3, ACTN2, MYLK3)",Cor.4U hiPSC-CMs [8],downregulated
